{"source": "ChEMBL document CHEMBL3880386", "about": "“Combination comprising the MEK inhibitor N-{3-[3-cyclopropyl-5-(2-fluoro-4-iodo- phenylamino)-6,8-dimethyl-2,4,7-trioxo-3,4,6,7-tetrahydro-2H-pyrido[4,3-d]pyrimidin-1-yl]phenyl}acetamide and the Akt inhibitor N-{(1S)-2-amino-1-[(3-fluorophenyl)methyl]ethyl}-5-chloro-4-(4-chloro-1- …” (2014)", "format_in_all_cases": "functional", "key": {"[1]": {"test": "Growth inhibition of human DLD1 cells incubated for 72 hrs by Cell-titer-Glo reagent based assay", "conditions": "DLD-1, 72 h"}, "[2]": {"test": "Growth inhibition of human A427 cells incubated for 72 hrs by Cell-titer-Glo reagent based assay", "conditions": "A-427, 72 h"}, "[3]": {"test": "Growth inhibition of human MV522 cells incubated for 72 hrs by Cell-titer-Glo reagent based assay", "conditions": "MV522, 72 h"}, "[4]": {"test": "Growth inhibition of human T84 cells incubated for 72 hrs by Cell-titer-Glo reagent based assay", "conditions": "T84, 72 h"}, "[5]": {"test": "Growth inhibition of human LS1034 cells incubated for 72 hrs by Cell-titer-Glo reagent based assay", "conditions": "LS-1034, 72 h"}, "[6]": {"test": "Growth inhibition of human NCI-H1155 cells incubated for 72 hrs by Cell-titer-Glo reagent based assay", "conditions": "NCI-H1155, 72 h"}, "[7]": {"test": "Growth inhibition of human NCI-H1792 cells incubated for 72 hrs by Cell-titer-Glo reagent based assay", "conditions": "NCI-H1792, 72 h"}, "[8]": {"test": "Growth inhibition of human MDA-MB-175-VII cells incubated for 72 hrs by Cell-titer-Glo reagent based assay"}, "[9]": {"test": "Growth inhibition of human EFM19 cells incubated for 72 hrs by Cell-titer-Glo reagent based assay", "conditions": "EFM-19, 72 h"}, "[10]": {"test": "Growth inhibition of human NCI-H727 cells incubated for 72 hrs by Cell-titer-Glo reagent based assay", "conditions": "NCI-H727, 72 h"}, "[11]": {"test": "Growth inhibition of human SW837 cells incubated for 72 hrs by Cell-titer-Glo reagent based assay", "conditions": "SW837, 72 h"}, "[12]": {"test": "Growth inhibition of human HT-29 cells at 1:10 molar ratio of compound in presence of N-{(1S)-2-amino-1-[(3-fluorophenyl)methyl]ethyl}-5-chloro-4-(4-chloro-1-methyl-1H-pyrazol-5-yl)-2-thiophenecar- boxamide incubated for 72 hrs by Cell-titer-Glo reagent based assay", "conditions": "HT-29, 72 h"}, "[13]": {"test": "Growth inhibition of human HT-29 cells incubated for 72 hrs by Cell-titer-Glo reagent based assay", "conditions": "HT-29, 72 h"}, "[14]": {"test": "Growth inhibition of human HCC827 cells incubated for 72 hrs by Cell-titer-Glo reagent based assay", "conditions": "HCC827, 72 h"}, "[15]": {"test": "Growth inhibition of human SW1573 cells incubated for 72 hrs by Cell-titer-Glo reagent based assay", "conditions": "SW1573, 72 h"}, "[16]": {"test": "Growth inhibition of human NCI-H727 cells assessed combination index at 1:10 molar ratio of compound in presence of N-{(1S)-2-amino-1-[(3-fluorophenyl)methyl]ethyl}-5-chloro-4-(4-chloro-1-methyl-1H-pyrazol-5-yl)-2-thiophenecar- boxamide incubated for 72 hrs by Cell-titer-Glo reagent based assay"}, "[17]": {"test": "Growth inhibition of human NCI-H23 cells incubated for 72 hrs by Cell-titer-Glo reagent based assay", "conditions": "NCI-H23, 72 h"}, "[18]": {"test": "Growth inhibition of human Calu3 cells incubated for 72 hrs by Cell-titer-Glo reagent based assay", "conditions": "Calu-3, 72 h"}, "[19]": {"test": "Growth inhibition of human KM12 cells incubated for 72 hrs by Cell-titer-Glo reagent based assay", "conditions": "KM12, 72 h"}, "[20]": {"test": "Growth inhibition of human SW1417 cells incubated for 72 hrs by Cell-titer-Glo reagent based assay", "conditions": "SW1417, 72 h"}, "[21]": {"test": "Growth inhibition of human NCI-H1355 cells incubated for 72 hrs by Cell-titer-Glo reagent based assay", "conditions": "NCI-H1355, 72 h"}, "[22]": {"test": "Growth inhibition of human A549 cells incubated for 72 hrs by Cell-titer-Glo reagent based assay", "conditions": "A549, 72 h"}, "[23]": {"test": "Growth inhibition of human HOP62 cells incubated for 72 hrs by Cell-titer-Glo reagent based assay", "conditions": "HOP-62, 72 h"}, "[24]": {"test": "Growth inhibition of human SW1463 cells incubated for 72 hrs by Cell-titer-Glo reagent based assay", "conditions": "SW1463, 72 h"}, "[25]": {"test": "Growth inhibition of human RKO cells incubated for 72 hrs by Cell-titer-Glo reagent based assay"}, "[26]": {"test": "Growth inhibition of human COLO205 cells at 1:10 molar ratio of compound in presence of N-{(1S)-2-amino-1-[(3-fluorophenyl)methyl]ethyl}-5-chloro-4-(4-chloro-1-methyl-1H-pyrazol-5-yl)-2-thiophenecar- boxamide incubated for 72 hrs by Cell-titer-Glo reagent based assay", "conditions": "COLO 205, 72 h"}, "[27]": {"test": "Growth inhibition of human SW480 cells incubated for 72 hrs by Cell-titer-Glo reagent based assay", "conditions": "SW480, 72 h"}, "[28]": {"test": "Growth inhibition of human SW900 cells incubated for 72 hrs by Cell-titer-Glo reagent based assay", "conditions": "SW900, 72 h"}, "[29]": {"test": "Growth inhibition of human COLO205 cells incubated for 72 hrs by Cell-titer-Glo reagent based assay", "conditions": "COLO 205, 72 h"}, "[30]": {"test": "Growth inhibition of human A427 cells at 1:10 molar ratio of compound in presence of N-{3-[3-cyclopropyl-5-(2-fluoro-4-iodo-phenylamino)-6,8-dimethyl- 2,4,7-trioxo-3,4,6,7-tetrahydro-2H-pyrido[4,3-d]pyrimidin-1-yl]phenyl}acetamide incubated for 72 hrs by Cell-titer-Glo reagent based assay", "conditions": "A-427, 72 h"}, "[31]": {"test": "Growth inhibition of human SW480 cells at 1:10 molar ratio of compound in presence of N-{3-[3-cyclopropyl-5-(2-fluoro-4-iodo-phenylamino)-6,8-dimethyl- 2,4,7-trioxo-3,4,6,7-tetrahydro-2H-pyrido[4,3-d]pyrimidin-1-yl]phenyl}acetamide incubated for 72 hrs by Cell-titer-Glo reagent based assay", "conditions": "SW480, 72 h"}, "[32]": {"test": "Growth inhibition of human RKO cells at 1:10 molar ratio of compound in presence of N-{3-[3-cyclopropyl-5-(2-fluoro-4-iodo-phenylamino)-6,8-dimethyl- 2,4,7-trioxo-3,4,6,7-tetrahydro-2H-pyrido[4,3-d]pyrimidin-1-yl]phenyl}acetamide incubated for 72 hrs by Cell-titer-Glo reagent based assay"}, "[33]": {"test": "Growth inhibition of human DLD1 cells at 1:10 molar ratio of compound in presence of N-{3-[3-cyclopropyl-5-(2-fluoro-4-iodo-phenylamino)-6,8-dimethyl- 2,4,7-trioxo-3,4,6,7-tetrahydro-2H-pyrido[4,3-d]pyrimidin-1-yl]phenyl}acetamide incubated for 72 hrs by Cell-titer-Glo reagent based assay", "conditions": "DLD-1, 72 h"}, "[34]": {"test": "Growth inhibition of human NCI-H727 cells at 1:10 molar ratio of compound in presence of N-{3-[3-cyclopropyl-5-(2-fluoro-4-iodo-phenylamino)-6,8-dimethyl- 2,4,7-trioxo-3,4,6,7-tetrahydro-2H-pyrido[4,3-d]pyrimidin-1-yl]phenyl}acetamide incubated for 72 hrs by Cell-titer-Glo reagent based assay", "conditions": "NCI-H727, 72 h"}, "[35]": {"test": "Growth inhibition of human COR-L23 cells at 1:10 molar ratio of compound in presence of N-{3-[3-cyclopropyl-5-(2-fluoro-4-iodo-phenylamino)-6,8-dimethyl- 2,4,7-trioxo-3,4,6,7-tetrahydro-2H-pyrido[4,3-d]pyrimidin-1-yl]phenyl}acetamide incubated for 72 hrs by Cell-titer-Glo reagent based assay", "conditions": "COR-L23, 72 h"}}, "data": [{"compound": "CC(=O)Nc1cccc(-n2c(=O)n(C3CC3)c(=O)c3c(Nc4ccc(I)cc4F)n(C)c(=O)c(C)c32)c1", "note": "[TRAMETINIB]", "values": [{"measurement": "IC50", "setting": "[1]", "result": 632, "unit": "nM"}, {"measurement": "IC50", "setting": "[2]", "result": 22, "unit": "nM"}, {"measurement": "IC50", "setting": "[3]", "result": 2, "unit": "nM"}, {"measurement": "IC50", "setting": "[4]", "result": 61, "unit": "nM"}, {"measurement": "IC50", "setting": "[5]", "result": 5, "unit": "nM"}, {"measurement": "IC50", "setting": "[6]", "result": "> 1000", "unit": "nM"}, {"measurement": "IC50", "setting": "[7]", "result": 53, "unit": "nM"}, {"measurement": "IC50", "setting": "[8]", "result": 96, "unit": "nM"}, {"measurement": "IC50", "setting": "[9]", "result": "> 1000", "unit": "nM"}, {"measurement": "IC50", "setting": "[10]", "result": 2, "unit": "nM"}, {"measurement": "IC50", "setting": "[11]", "result": 74, "unit": "nM"}, {"measurement": "IC50", "setting": "[12]", "result": 1, "unit": "nM"}, {"measurement": "IC50", "setting": "[13]", "result": 2, "unit": "nM"}, {"measurement": "IC50", "setting": "[14]", "result": "> 1000", "unit": "nM"}, {"measurement": "IC50", "setting": "[15]", "result": "> 1000", "unit": "nM"}, {"measurement": "CI", "setting": "[16]", "result": 1.09}, {"measurement": "IC50", "setting": "[17]", "result": 29, "unit": "nM"}, {"measurement": "IC50", "setting": "[18]", "result": 158, "unit": "nM"}, {"measurement": "IC50", "setting": "[19]", "result": 23, "unit": "nM"}, {"measurement": "IC50", "setting": "[20]", "result": 3, "unit": "nM"}, {"measurement": "IC50", "setting": "[21]", "result": 52, "unit": "nM"}, {"measurement": "IC50", "setting": "[22]", "result": 34, "unit": "nM"}, {"measurement": "IC50", "setting": "[23]", "result": "> 1000", "unit": "nM"}, {"measurement": "IC50", "setting": "[24]", "result": 4, "unit": "nM"}, {"measurement": "IC50", "setting": "[25]", "result": 18, "unit": "nM"}, {"measurement": "IC50", "setting": "[26]", "result": 1, "unit": "nM"}, {"measurement": "IC50", "setting": "[27]", "result": 37, "unit": "nM"}, {"measurement": "IC50", "setting": "[28]", "result": 127, "unit": "nM"}, {"measurement": "IC50", "setting": "[29]", "result": 1, "unit": "nM"}]}, {"compound": "Cn1ncc(Cl)c1-c1cc(C(=O)N[C@H](CN)Cc2cccc(F)c2)sc1Cl", "note": "[AFURESERTIB]", "values": [{"measurement": "IC50", "setting": "[1]", "result": "> 10000", "unit": "nM"}, {"measurement": "IC50", "setting": "[2]", "result": "> 8000", "unit": "nM"}, {"measurement": "IC50", "setting": "[3]", "result": 3040, "unit": "nM"}, {"measurement": "IC50", "setting": "[4]", "result": "> 10000", "unit": "nM"}, {"measurement": "IC50", "setting": "[5]", "result": 4340, "unit": "nM"}, {"measurement": "IC50", "setting": "[30]", "result": 103, "unit": "nM"}, {"measurement": "IC50", "setting": "[6]", "result": 865, "unit": "nM"}, {"measurement": "IC50", "setting": "[7]", "result": 7310, "unit": "nM"}, {"measurement": "IC50", "setting": "[8]", "result": 794, "unit": "nM"}, {"measurement": "IC50", "setting": "[9]", "result": 430, "unit": "nM"}, {"measurement": "IC50", "setting": "[10]", "result": 4800, "unit": "nM"}, {"measurement": "IC50", "setting": "[11]", "result": "> 10000", "unit": "nM"}, {"measurement": "IC50", "setting": "[31]", "result": 259, "unit": "nM"}, {"measurement": "IC50", "setting": "[13]", "result": 1380, "unit": "nM"}, {"measurement": "IC50", "setting": "[14]", "result": "> 8000", "unit": "nM"}, {"measurement": "IC50", "setting": "[15]", "result": "> 8000", "unit": "nM"}, {"measurement": "IC50", "setting": "[17]", "result": 7120, "unit": "nM"}, {"measurement": "IC50", "setting": "[18]", "result": "> 8000", "unit": "nM"}, {"measurement": "IC50", "setting": "[19]", "result": 2250, "unit": "nM"}, {"measurement": "IC50", "setting": "[32]", "result": 54, "unit": "nM"}, {"measurement": "IC50", "setting": "[20]", "result": "> 10000", "unit": "nM"}, {"measurement": "IC50", "setting": "[33]", "result": 932, "unit": "nM"}, {"measurement": "IC50", "setting": "[21]", "result": 6680, "unit": "nM"}, {"measurement": "IC50", "setting": "[34]", "result": 19, "unit": "nM"}, {"measurement": "IC50", "setting": "[22]", "result": 5990, "unit": "nM"}, {"measurement": "IC50", "setting": "[23]", "result": "> 10000", "unit": "nM"}, {"measurement": "IC50", "setting": "[24]", "result": 9720, "unit": "nM"}, {"measurement": "IC50", "setting": "[25]", "result": 1810, "unit": "nM"}, {"measurement": "IC50", "setting": "[27]", "result": "> 10000", "unit": "nM"}, {"measurement": "IC50", "setting": "[35]", "result": 368, "unit": "nM"}, {"measurement": "IC50", "setting": "[28]", "result": "> 10000", "unit": "nM"}, {"measurement": "IC50", "setting": "[29]", "result": 2570, "unit": "nM"}]}]}
